From ChEMBL document CHEMBL5303573, “Mapping human microbiome drug metabolism by gut bacteria and their genes” (Nature, 2019)

Experiments:
[1] = The drug is tested on Bifidobacterium breve strain: DSM20213 for biotransformation. The drug concentrations were measured before and after a 12-h incubation by liquid-chromatography-coupled mass spectrometry (LC–MS); details: 2 µM
[2] = The drug is tested on Bacteroides dorei strain: DSM17855 for biotransformation. The drug concentrations were measured before and after a 12-h incubation by liquid-chromatography-coupled mass spectrometry (LC–MS); details: phocaeicola dorei, 2 µM
[3] = The drug is tested on Bacteroides uniformis strain: ATCC8492 for biotransformation. The drug concentrations were measured before and after a 12-h incubation by liquid-chromatography-coupled mass spectrometry (LC–MS); details: 2 µM
[4] = The drug is tested on Bacteroides sp. WH2 strain: WH2 for biotransformation. The drug concentrations were measured before and after a 12-h incubation by liquid-chromatography-coupled mass spectrometry (LC–MS); details: bacteroides sp. wh2, 12 h, 2 µM
[5] = The drug is tested on Odoribacter splanchnicus strain: fecal isolate for biotransformation. The drug concentrations were measured before and after a 12-h incubation by liquid-chromatography-coupled mass spectrometry (LC–MS); details: 2 µM
[6] = The drug is tested on Anaerococcus hydrogenalis strain: DSM7454 for biotransformation. The drug concentrations were measured before and after a 12-h incubation by liquid-chromatography-coupled mass spectrometry (LC–MS); details: 2 µM
[7] = The drug is tested on Clostridium asparagiforme strain: DSM15981 for biotransformation. The drug concentrations were measured before and after a 12-h incubation by liquid-chromatography-coupled mass spectrometry (LC–MS); type: ADME; parameters: dose 2 uM, timepoint 0 vs 12 hours; details: enterocloster asparagiformis, 2 µM
[8] = The drug is tested on Clostridium symbiosum strain: ATCC14940 for biotransformation. The drug concentrations were measured before and after a 12-h incubation by liquid-chromatography-coupled mass spectrometry (LC–MS); details: 2 µM
[9] = The drug is tested on Enterococcus faecalis strain: V583 for biotransformation. The drug concentrations were measured before and after a 12-h incubation by liquid-chromatography-coupled mass spectrometry (LC–MS); details: 2 µM
[10] = The drug is tested on Eubacterium hallii strain: DSM3353 for biotransformation. The drug concentrations were measured before and after a 12-h incubation by liquid-chromatography-coupled mass spectrometry (LC–MS); details: anaerobutyricum hallii, 2 µM
[11] = The drug is tested on Eubacterium rectale strain: ATCC33656 for biotransformation. The drug concentrations were measured before and after a 12-h incubation by liquid-chromatography-coupled mass spectrometry (LC–MS); details: agathobacter rectalis, 2 µM
[12] = The drug is tested on Edwardsiella tarda strain: ATCC23685 for biotransformation. The drug concentrations were measured before and after a 12-h incubation by liquid-chromatography-coupled mass spectrometry (LC–MS); details: 2 µM
[13] = The drug is tested on Enterobacter cancerogenus strain: ATCC35316 for biotransformation. The drug concentrations were measured before and after a 12-h incubation by liquid-chromatography-coupled mass spectrometry (LC–MS); details: 2 µM
[14] = The drug is tested on Escherichia coli strain: BW25113 for biotransformation. The drug concentrations were measured before and after a 12-h incubation by liquid-chromatography-coupled mass spectrometry (LC–MS); details: 2 µM
[15] = bacteroides eggerthii, 12 h, 2 µM
Description: The drug is tested on Bacteroides eggerthii strain: DSM20697 for biotransformation. The drug concentrations were measured before and after a 12-h incubation by liquid-chromatography-coupled mass spectrometry (LC–MS)

[16] = bacteroides fragilis, 12 h, 2 µM
Description: The drug is tested on Bacteroides fragilis strain: NCTC 9343 for biotransformation. The drug concentrations were measured before and after a 12-h incubation by liquid-chromatography-coupled mass spectrometry (LC–MS)

[17] = parabacteroides distasonis, 12 h, 2 µM
Description: The drug is tested on Parabacteroides distasonis strain: ATCC8503 for biotransformation. The drug concentrations were measured before and after a 12-h incubation by liquid-chromatography-coupled mass spectrometry (LC–MS)

[18] = limosilactobacillus reuteri cf48-3a, 12 h, 2 µM
Description: The drug is tested on Lactobacillus reuteri CF48-3A strain: BEI HM-102 for biotransformation. The drug concentrations were measured before and after a 12-h incubation by liquid-chromatography-coupled mass spectrometry (LC–MS)

[19] = The drug is tested on Bacteroides fragilis strain: HMW615 for biotransformation. The drug concentrations were measured before and after a 12-h incubation by liquid-chromatography-coupled mass spectrometry (LC–MS); details: 2 µM
[20] = The drug is tested on Bacteroides coprophilus strain: DSM18228 for biotransformation. The drug concentrations were measured before and after a 12-h incubation by liquid-chromatography-coupled mass spectrometry (LC–MS); details: 2 µM

Measured: Bacterial Biotransformation

CN[C@H]1CC[C@@H](c2ccc(Cl)c(Cl)c2)c2ccccc21 [SERTRALINE]
not listed: [19] | [20]
Compound NOT metabolized: all other assays above

CCCN(CCC)CCc1cccc2c1CC(=O)N2 [ROPINIROLE]
not listed: [5] | [11] | [17] | [20]
Compound NOT metabolized: all other assays above

O=C(CCCN1CCC2(CC1)C(=O)NCN2c1ccccc1)c1ccc(F)cc1 [SPIPERONE]
not listed: [5] | [11] | [17]
Compound NOT metabolized: all other assays above
